Data set [1] concerns Plasmodium falciparum. The experiment in a line: Antimalarial activity against Plasmodium falciparum K1. Type of data set: functional, organism-based.
Data set [2] deals with Plasmodium falciparum. The experiment in a line: Antimalarial activity against Plasmodium falciparum NF54. Type of data set: functional, organism-based.
Data set [3] deals with Mus musculus. Nature of the data set: Survival of MORO mice (Mus musculus) infected with Plasmodium berghei at 10 mg/kg, perorally after 30 day post-infection. Type of data set: functional. The following applies: route oral.
Data set [4] concerns Mus musculus. Nature of the data set: Survival of MORO mice (Mus musculus) infected with Plasmodium berghei at 10 mg/kg, subcutaneously after 30 day post-infection. Type of data set: functional. Conditions: route subcutaneous.
The subject of data set [5] is Plasmodium berghei. The experiment in a line: Antimalarial activity in Plasmodium berghei infected MORO mice (Mus musculus) at 10 mg/kg peroral dose. The following applies: route oral. It counts as functional.
Data set [6] deals with Plasmodium berghei. Nature of the data set: Antimalarial activity in Plasmodium berghei infected MORO mice (Mus musculus) at 10 mg/kg subcutaneous dose. It counts as functional.
Data set [7] in a line: Lipophilicity, LogD at pH 7.4. Type of data set: physicochemical. The following applies: buffer.
Data set [8] can be described thus: Partition coefficient, logP of the compound. Type of data set: physicochemical. Conditions: octanol/water.

Values after ≈ are worked out from the molar mass of the structure shown.

Take `COCC(=O)N1CC[C@]2(CC1)OO[C@]1(O2)C2CC3CC(C2)CC1C3`: the IC50 in the data set on Plasmodium falciparum [1] came to 0.95 ng/mL (≈ 2.82 nM); with Plasmodium falciparum [2], 0.2 ng/mL (≈ 0.593 nM). The Activity in the data set with Mus musculus [3] and in the data set with Mus musculus [4] was 7.3 days in each case.

As to `C1CC2(CCN1)OOC1(O2)C2CC3CC(C2)CC1C3.Cl` (centres undefined), the IC50 in the data set with Plasmodium falciparum [1] worked out at 0.15 ng/mL; with Plasmodium falciparum [2], 0.34 ng/mL. Also, the Activity was 59% in the data set with Plasmodium berghei [5], 84% with Plasmodium berghei [6], 6.3 days in the data set with Mus musculus [3] and 7.7 days with Mus musculus [4]. Besides, the logD in data set [7] is 0.25.

Regarding `O=S(=O)(c1ccccc1)N1CCC2(CC1)OOC1(O2)C2CC3CC(C2)CC1C3` (centres undefined), the values for the IC50 in the data set with Plasmodium falciparum [1] and in the data set on Plasmodium falciparum [2] were 1.1 ng/mL (≈ 2.71 nM) and 1.2 ng/mL (≈ 2.96 nM), respectively. Besides, the Activity with Plasmodium berghei [5] is 71%; with Plasmodium berghei [6] it was over 99.99%; in the data set on Mus musculus [3] it was 6 days; in the data set on Mus musculus [4], 10.3 days. Besides, in data set [8], the logP came to 5.5.

On to `C1CCC2(CC1)OOC1(O2)C2CC3CC(C2)CC1C3` (centres undefined), for which the values for the half-maximal inhibitory concentration (IC50) in the data set on Plasmodium falciparum [1] and with Plasmodium falciparum [2] were 0.97 ng/mL (≈ 3.67 nM) and 1.4 ng/mL (≈ 5.3 nM), respectively. In addition, the Activity with Plasmodium berghei [5] was 94%; with Plasmodium berghei [6], over 99.99%; with Mus musculus [3], 7.2 days; in the data set with Mus musculus [4] it was 11.9 days. The molecule also registered a logP in data set [8] of 6.1.

On to `O=C(CO)N1CCC2(CC1)OOC1(O2)C2CC3CC(C2)CC1C3` (centres undefined), for which the IC50 was 0.3 ng/mL (≈ 0.928 nM) in the data set on Plasmodium falciparum [1] and 0.6 ng/mL (≈ 1.86 nM) with Plasmodium falciparum [2]. The Activity in the data set on Plasmodium berghei [5] was 92%; with Plasmodium berghei [6], 99.8%; with Mus musculus [3], 7 days; in the data set on Mus musculus [4], 8 days. Further, the logP in data set [8] was determined as 2.4.

In the case of `O=C(N1CCOCC1)N1CCC2(CC1)OOC1(O2)C2CC3CC(C2)CC1C3` (centres undefined), the Activity turned out to be 8.7 days in the data set on Mus musculus [3] and 9 days with Mus musculus [4].

As to `O=C(O)CCC(=O)N1CCC2(CC1)OOC1(O2)C2CC3CC(C2)CC1C3` (centres undefined), the results for the IC50 with Plasmodium falciparum [1] and in the data set with Plasmodium falciparum [2] were 7.1 ng/mL (≈ 19.4 nM) and 7.2 ng/mL (≈ 19.7 nM), respectively. Besides, the Activity in the data set with Plasmodium berghei [5] was 39%; in the data set on Plasmodium berghei [6], 52%; in the data set on Mus musculus [3] it was 6 days; in the data set with Mus musculus [4] it was 6.3 days. Further, the logP in data set [8] was determined as 2.3.

`O=C(O)c1ccccc1C(=O)N1CCC2(CC1)OOC1(O2)C2CC3CC(C2)CC1C3` (centres undefined): the 50% inhibitory concentration (IC50) is 22 ng/mL (≈ 53.2 nM) in the data set on Plasmodium falciparum [1] and 13 ng/mL (≈ 31.4 nM) in the data set with Plasmodium falciparum [2]. In addition, the Activity with Mus musculus [3] and in the data set with Mus musculus [4] was 6.3 days each time. This molecule also came in with a pH-dependent lipophilicity (logD) in data set [7] of 1.2.

Take `NC(=O)N1CCC2(CC1)OOC1(O2)C2CC3CC(C2)CC1C3` (centres undefined): the Activity is 8.3 days in the data set on Mus musculus [3] and 8.7 days in the data set on Mus musculus [4].

On to `CC(C)(C)NC(=O)N1CCC2(CC1)OOC1(O2)C2CC3CC(C2)CC1C3` (centres undefined), for which the IC50 worked out at 0.98 ng/mL (≈ 2.69 nM) in the data set on Plasmodium falciparum [1] and 1.8 ng/mL (≈ 4.94 nM) in the data set with Plasmodium falciparum [2]. Moreover, the values for the Activity in the data set on Mus musculus [3] and in the data set on Mus musculus [4] were 6.7 days and 9.7 days, respectively.

Consider `CCS(=O)(=O)CCN1CCC2(CC1)OOC1(O2)C2CC3CC(C2)CC1C3` (centres undefined), for which the IC50 in the data set on Plasmodium falciparum [1] is 1 ng/mL (≈ 2.59 nM); in the data set on Plasmodium falciparum [2], 2.9 ng/mL (≈ 7.52 nM). The Activity amounted to 7 days with Mus musculus [3] and 8 days in the data set with Mus musculus [4]. The logD in data set [7] came to 2.3.

Take `Cc1ccc(NC(=O)N2CCC3(CC2)OOC2(O3)C3CC4CC(C3)CC2C4)cc1` (centres undefined): the IC50 with Plasmodium falciparum [1] and in the data set on Plasmodium falciparum [2] was 2.3 ng/mL (≈ 5.77 nM) each time. Moreover, the Activity in the data set on Mus musculus [3] stood at 6 days; with Mus musculus [4], 14.3 days.

For the molecule `CN1CCN(C(=O)N2CCC3(CC2)OOC2(O3)C3CC4CC(C3)CC2C4)CC1` (centres undefined), the IC50 was 0.2 ng/mL (≈ 0.511 nM) in the data set on Plasmodium falciparum [1] and 0.22 ng/mL (≈ 0.562 nM) in the data set on Plasmodium falciparum [2]. Further, the Activity is 7.3 days in the data set on Mus musculus [3] and 8.3 days with Mus musculus [4]. Moreover, in data set [7], the logD was 2.6.

In the case of `CCS(=O)(=O)N1CCC2(CC1)OOC1(O2)C2CC3CC(C2)CC1C3` (centres undefined), the IC50 with Plasmodium falciparum [1] was determined as 0.38 ng/mL (≈ 1.06 nM); in the data set on Plasmodium falciparum [2], 0.81 ng/mL (≈ 2.27 nM). Also, the Activity was 85% in the data set on Plasmodium berghei [5], 99.94% in the data set with Plasmodium berghei [6], 7 days with Mus musculus [3] and 9.3 days in the data set on Mus musculus [4].

Take `O=S(=O)(Cc1ccccc1)N1CCC2(CC1)OOC1(O2)C2CC3CC(C2)CC1C3` (centres undefined): the results for the IC50 with Plasmodium falciparum [1] and in the data set with Plasmodium falciparum [2] were 1.7 ng/mL (≈ 4.05 nM) and 4.1 ng/mL (≈ 9.77 nM), respectively. Further, the Activity with Mus musculus [3] turned out to be 5.7 days; in the data set on Mus musculus [4], 8 days.

In the case of `c1ccc(CN2CCC3(CC2)OOC2(O3)C3CC4CC(C3)CC2C4)cc1` (centres undefined), the IC50 in the data set on Plasmodium falciparum [1] was determined as 2.5 ng/mL (≈ 7.03 nM); with Plasmodium falciparum [2], 2.6 ng/mL (≈ 7.31 nM). Also, the Activity in the data set on Mus musculus [3] turned out to be 6 days; with Mus musculus [4], 10 days. Also, the logD in data set [7] was determined as 3.5.

`CN(C)C(=O)N1CCC2(CC1)OOC1(O2)C2CC3CC(C2)CC1C3` (centres undefined): in the data set with Plasmodium falciparum [1], the IC50 amounted to 0.7 ng/mL (≈ 2.08 nM). Further, the Activity with Mus musculus [3] and in the data set with Mus musculus [4] was 7 days each time.

Regarding `O=C(Nc1ccc(Cl)cc1)N1CCC2(CC1)OOC1(O2)C2CC3CC(C2)CC1C3` (centres undefined), the Activity in the data set with Mus musculus [3] came to 6 days; with Mus musculus [4], 13.7 days.

Turning to `CO[C@H]1O[C@@H]2O[C@@]3(C)CC[C@H]4[C@H](C)CC[C@@H]([C@H]1C)[C@@]24OO3`, the IC50 in the data set with Plasmodium falciparum [1] turned out to be 0.74 ng/mL (≈ 2.48 nM); in the data set on Plasmodium falciparum [2], 1.2 ng/mL (≈ 4.02 nM). The Activity with Plasmodium berghei [5] was found to be 98%; in the data set with Plasmodium berghei [6], 99.78%; with Mus musculus [3], 7.9 days; in the data set on Mus musculus [4], 9.1 days. This molecule also displayed a lipophilicity (logP) in data set [8] of 3.3.

For `CC(=O)Nc1ccc(S(=O)(=O)N2CCC3(CC2)OOC2(O3)C3CC4CC(C3)CC2C4)cc1` (centres undefined), the IC50 with Plasmodium falciparum [1] is 1.4 ng/mL (≈ 3.03 nM); with Plasmodium falciparum [2] it was 0.5 ng/mL (≈ 1.08 nM). Besides, the Activity in the data set on Mus musculus [3] was 6.3 days; in the data set on Mus musculus [4] it was 12 days.

As for `CC(=O)N1CCC2(CC1)OOC1(O2)C2CC3CC(C2)CC1C3` (centres undefined), the IC50 with Plasmodium falciparum [1] came to 0.82 ng/mL (≈ 2.67 nM); in the data set with Plasmodium falciparum [2], 0.93 ng/mL (≈ 3.03 nM). Moreover, the Activity in the data set with Plasmodium berghei [5] is 81%; with Plasmodium berghei [6], 85%; in the data set on Mus musculus [3], 6.7 days; in the data set on Mus musculus [4], 7.3 days. This molecule displayed a lipophilicity (logP) in data set [8] of 3.8.

Turning to `CC(C)(C)CC(=O)N1CCC2(CC1)OOC1(O2)C2CC3CC(C2)CC1C3` (centres undefined), the Activity with Mus musculus [3] was found to be 7.7 days; in the data set on Mus musculus [4], 8.3 days.

Turning to `c1cc(CN2CCC3(CC2)OOC2(O3)C3CC4CC(C3)CC2C4)ccn1` (centres undefined), the results for the IC50 in the data set on Plasmodium falciparum [1] and in the data set with Plasmodium falciparum [2] were 0.4 ng/mL (≈ 1.12 nM) and 0.67 ng/mL (≈ 1.88 nM), respectively. Besides, the Activity came to 6.3 days in the data set with Mus musculus [3] and 11 days in the data set on Mus musculus [4]. Besides, the logD in data set [7] was 2.7.

Take `O=C(Nc1ccccc1)N1CCC2(CC1)OOC1(O2)C2CC3CC(C2)CC1C3` (centres undefined): the Activity with Mus musculus [3] came out at 7 days; with Mus musculus [4] it was 19.7 days.

Regarding `O=C(c1ccncc1)N1CCC2(CC1)OOC1(O2)C2CC3CC(C2)CC1C3` (centres undefined), the Activity in the data set with Mus musculus [3] worked out at 6.7 days; in the data set with Mus musculus [4] it was 7 days.

Take `CC(C)N(C(=O)N1CCC2(CC1)OOC1(O2)C2CC3CC(C2)CC1C3)C(C)C` (centres undefined): half-maximal inhibition with Plasmodium falciparum [2] (IC50) was put at 6.6 ng/mL (≈ 16.8 nM). In addition, the Activity in the data set on Mus musculus [3] came to 8.3 days; in the data set with Mus musculus [4], 20.3 days.

With `CS(=O)(=O)N1CCC2(CC1)OOC1(O2)C2CC3CC(C2)CC1C3` (centres undefined), the values for the half-maximal inhibitory concentration (IC50) with Plasmodium falciparum [1] and in the data set with Plasmodium falciparum [2] were 0.59 ng/mL (≈ 1.72 nM) and 0.64 ng/mL (≈ 1.86 nM), respectively. In addition, the Activity in the data set on Plasmodium berghei [5] was 93%; in the data set with Plasmodium berghei [6], 99.97%; in the data set on Mus musculus [3], 6.7 days; in the data set with Mus musculus [4], 10.3 days.

As for `O=C(c1ccccc1)N1CCC2(CC1)OOC1(O2)C2CC3CC(C2)CC1C3` (centres undefined), the concentration for half-maximal inhibition (IC50) with Plasmodium falciparum [1] was 0.35 ng/mL (≈ 0.947 nM); with Plasmodium falciparum [2], 0.58 ng/mL (≈ 1.57 nM). Also, the Activity came to 93% with Plasmodium berghei [5], 99.9% in the data set on Plasmodium berghei [6], 7 days in the data set on Mus musculus [3] and 8.7 days in the data set on Mus musculus [4]. The same molecule gave a logP in data set [8] of 5.6.

In the case of `O=C(N1CCCC1)N1CCC2(CC1)OOC1(O2)C2CC3CC(C2)CC1C3` (centres undefined), the concentration for half-maximal inhibition (IC50) came to 3.9 ng/mL (≈ 10.8 nM) in the data set on Plasmodium falciparum [1] and 6.7 ng/mL (≈ 18.5 nM) in the data set on Plasmodium falciparum [2]. Besides, the Activity with Mus musculus [3] came to 7.3 days; in the data set with Mus musculus [4], 9.7 days.

As for `C[C@H]1[C@H](OC(=O)CCC(=O)O)O[C@@H]2O[C@@]3(C)CC[C@H]4[C@H](C)CC[C@@H]1[C@@]24OO3` [ARTESUNATE], the Activity with Plasmodium berghei [5] is 65%; with Plasmodium berghei [6], 65%; in the data set on Mus musculus [3] it was 6.8 days; in the data set with Mus musculus [4] it was 6.8 days.

The record behind these values is ChEMBL document CHEMBL1139685, “Antimalarial activity of N-alkyl amine, carboxamide, sulfonamide, and urea derivatives of a dispiro-1,2,4-trioxolane piperidine” (Bioorg Med Chem Lett, 2006).
